Experimental data as given in ChEMBL document CHEMBL1201862, “PubChem BioAssay data set” (2004).
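These data come from cells grown in 96-well plates and exposed to compound for 48 hours at five concentrations. The concentration for 50% growth inhibition is given as GI50.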 Activity calls are given as the source filed them. Cut-off read from the data, not from the text of the source: active = GI50 up to about 1.1 µM and inactive = higher.

Experiments:
Assay in all cases: NCI-60 cell line screen, 48 h
IGROV-1 = system: IGROV-1
UACC-62 = system: UACC-62
HOP-62 = system: HOP-62
OVCAR-8 = system: OVCAR-8
MDA-N = system: MDA-N
SNB-19 = system: SNB-19
OVCAR-4 = system: OVCAR-4
MDA-MB-231 = system: MDA-MB-231
HCT-116 = system: HCT-116
SK-MEL-2 = system: SK-MEL-2
RXF 393 = system: RXF 393
U-251 = system: U-251
SK-MEL-28 = system: SK-MEL-28
HT-29 = system: HT-29
Hs-578T = system: Hs-578T
OVCAR-5 = system: OVCAR-5
T47D = system: T47D
SNB-75 = system: SNB-75
TK-10 = system: TK-10
SK-MEL-5 = system: SK-MEL-5

Structure (SMILES)	GI50 (IGROV-1)	GI50 (UACC-62)	GI50 (HOP-62)	GI50 (OVCAR-8)	GI50 (MDA-N)	GI50 (SNB-19)	GI50 (OVCAR-4)	GI50 (MDA-MB-231)	GI50 (HCT-116)	GI50 (SK-MEL-2)	GI50 (RXF 393)	GI50 (U-251)	GI50 (SK-MEL-28)	GI50 (HT-29)	GI50 (Hs-578T)	GI50 (OVCAR-5)	GI50 (T47D)	GI50 (SNB-75)	GI50 (TK-10)	GI50 (SK-MEL-5)
CCN(CC)C(=S)SNc1ccc(S(N)(=O)=O)cc1	2.11 µM (inactive)	> 100 µM (inactive)	69.8 µM (inactive)	23.3 µM (inactive)	69.3 µM (inactive)	> 83.4 µM (inactive)	> 83 µM (inactive)	60.5 µM (inactive)	47.3 µM (inactive)	> 63.1 µM (inactive)	44.4 µM (inactive)	50.4 µM (inactive)	33.4 µM (inactive)	24.6 µM (inactive)	> 100 µM (inactive)	28.4 µM (inactive)	91.6 µM (inactive)	> 72.9 µM (inactive)	> 100 µM (inactive)	30.5 µM (inactive)
O=[N+]([O-])c1ccc(Cl)cc1/C=N/C12CC3CC(CC(C3)C1)C2	55.7 µM (inactive)	30.6 µM (inactive)	60.8 µM (inactive)	43.1 µM (inactive)	52.5 µM (inactive)	59.6 µM (inactive)	63.5 µM (inactive)	40.3 µM (inactive)	5.24 µM (inactive)	> 66.8 µM (inactive)	53.1 µM (inactive)	33.2 µM (inactive)	76.9 µM (inactive)	30.6 µM (inactive)	51.8 µM (inactive)	> 100 µM (inactive)	37.4 µM (inactive)	> 68.1 µM (inactive)	> 100 µM (inactive)	56.6 µM (inactive)
CC(=O)Nc1ccc(Cc2ccc3nc(O)cc(C)c3c2)cc1	61.2 µM (inactive)	31 µM (inactive)	33.8 µM (inactive)	> 100 µM (inactive)	> 100 µM (inactive)	63.5 µM (inactive)	> 100 µM (inactive)	28.8 µM (inactive)	83.8 µM (inactive)	22.2 µM (inactive)	35.5 µM (inactive)	30.1 µM (inactive)	> 100 µM (inactive)	50.6 µM (inactive)	85.1 µM (inactive)	> 100 µM (inactive)	55.3 µM (inactive)	10.3 µM (inactive)	40.5 µM (inactive)	> 100 µM (inactive)
Nc1nc(Sc2ccc([N+](=O)[O-])c3nonc23)c2nc[nH]c2n1	3.57 µM (inactive)	0.43 µM (active)	0.561 µM (active)	0.721 µM (active)	0.91 µM (active)	15.8 µM (inactive)	1.14 µM (inactive)	0.731 µM (active)	0.622 µM (active)	1.06 µM (active)	1.36 µM (inactive)	5.86 µM (inactive)	10.5 µM (inactive)	1.59 µM (inactive)	6.58 µM (inactive)	1.02 µM (active)	1.2 µM (inactive)	3.31 µM (inactive)	0.687 µM (active)	2.15 µM (inactive)
Nc1ncnc2c1ccn2C/C=C\CO	> 100 µM (inactive)	> 100 µM (inactive)	> 100 µM (inactive)	> 100 µM (inactive)	> 100 µM (inactive)	> 100 µM (inactive)	> 100 µM (inactive)	> 100 µM (inactive)	> 100 µM (inactive)	> 100 µM (inactive)	> 100 µM (inactive)	> 100 µM (inactive)	> 100 µM (inactive)	> 100 µM (inactive)	> 100 µM (inactive)	> 100 µM (inactive)	> 100 µM (inactive)	> 100 µM (inactive)	> 100 µM (inactive)	> 100 µM (inactive)
